Reference: PMC5509550, “Development of a Novel Lead that Targets M. tuberculosis Polyketide Synthase 13” (Cell, 2017)
In brackets after ≈: the same amount, converted by molar mass.

Tests used:
Mtb mc^27000 = format: cell-based, Mycobacterium tuberculosis
[1] = tested on: TAM16-resistant Mtb mutants (Pks13 D1644G or D1644Y); format: cell-based, Mycobacterium tuberculosis

SMILES	frequency of resistance observed for INH (Mtb mc^27000)	MIC against TAM16-resistant mutants [1] [µM]
NNC(=O)c1ccncc1 [INH, Isoniazid]	1 × 10^−6	0.2 (≈ 0.0274 µg/mL)
CO[C@H]1/C=C/O[C@@]2(C)Oc3c(C)c(O)c4c(O)c(c(/C=N/N5CCN(C)CC5)c(O)c4c3C2=O)NC(=O)/C(C)=C\C=C\[C@H](C)[C@H](O)[C@@H](C)[C@@H](O)[C@@H](C)[C@H](OC(C)=O)[C@@H]1C [RIF, Rifampicin]		0.04 (≈ 0.0329 µg/mL)
